Experimental data reported in US11981954B2, “Compositions and methods for rapid identification and phenotypic antimicrobial susceptibility testing of bacteria and fungi” (priority 2019, dated 2024).

Tests used:
Conditions in all cases: interpreted according to CLSI M100 ED 30, confirmed by PCR ID/AST after 4 h incubation, 5E5 CFU/mL
E. faecium strain 18446 = experiment: PCR-based rapid ID/AST and CLSI susceptibility interpretation, E. faecium strain 18446; assay type: cell-based, Enterococcus faecium
Experimental: (§1) • a. Prepare antimicrobial (Abx) Plate ahead of time and store at […] until needed • i. Diluent—Cation Adjusted Mueller Hinton Broth (CAMHB) • ii. Final Vol—50 ul/well • iii. Remove from −80 C and let thaw at 30 min/Room Temp prior to use
(§2) • b. Overnight cultures in CAMHB—37 C/16-18 hrs/500 rpm • i. 10 ul glycerol stock+490 ul CAMHB in 2 mL 96-well Deep Well Plate • c. Normalize cultures to 1.00E+06 CFU/mL by Optical Density (OD) • d. Prepare Test Plate by adding 50 ul normalized test isolate to appropriate wells of Abx Plate as outlined
(§3) • e. Incubate Test Plate at 37 C/4 hrs/no shaking • f. Prepare PCR Reagents according to TABLE XXIX • g. Add 45 ul Master Mix to each well of a PCR Assay Plate • h. Following incubation, stamp 5 ul/well of Test Plate to PCR Assay Plate • i. Final Vol—50 ul/well • i. For Test Plate, continue incubating at 37 C/12-16 hrs/no shaking to determine reference method Minimum Inhibitory Concentration (MIC) • j. Load PCR Assay Plate to cobas z 480 instrument and run under conditions of TABLE XXX. • k. Following incubation read Test Plate for MIC and determine phenotypic Susceptible/Intermediate/Resistant interpretation. […]

E. faecium strain 18483 = experiment: PCR-based rapid ID/AST and CLSI susceptibility interpretation, E. faecium strain 18483; assay type: cell-based, Enterococcus faecium
Experimental: as §1, §2, §3

S. aureus strain 16405 = experiment: PCR-based rapid ID/AST and CLSI susceptibility interpretation, S. aureus strain 16405; assay type: cell-based, Staphylococcus aureus
Experimental: as §1, §2
(§4) • e. Incubate Test Plate at 37 C/4 hrs/no shaking • f. Prepare PCR Reagents according to TABLE XXIX • g. Add 45 ul Master Mix to each well of a PCR Assay Plate • h. Following incubation, stamp 5 ul/well of Test Plate to PCR Assay Plate • i. Final Vol—50 ul/well • i. For Test Plate, continue incubating at 37 C/12-16 hrs/no shaking to determine reference method Minimum Inhibitory Concentration (MIC) • j. Load PCR Assay Plate to cobas z 480 instrument and run under conditions of TABLE XXX. • k. Following incubation read Test Plate for MIC and determine phenotypic Susceptible/Intermediate/Resistant interpretation.
(§5) Rapid Identification and phenotypic antimicrobial susceptibility testing of Staphylococcus aureus utilizing three distinct target genes (gyrB, ddlA, tuf) and one class of antibacterial agent, cefoxitin (cephalosporin) was performed. […]

S. aureus strain 15509 = experiment: PCR-based rapid ID/AST and CLSI susceptibility interpretation, S. aureus strain 15509; assay type: cell-based, Staphylococcus aureus
Experimental: as §1, §2, §4, §5

[1] = system: A. baumannii strain 16421; experiment: PCR-based rapid ID/AST and CLSI susceptibility interpretation, A. baumannii strain 16421; assay type: cell-based, Acinetobacter baumannii
Experimental: as §1, §2, §4
(§6) The primer/probe sets used were as follows. […]

[2] = system: A. baumannii strain 17694; experiment: PCR-based rapid ID/AST and CLSI susceptibility interpretation, A. baumannii strain 17694; assay type: cell-based, Acinetobacter baumannii
Experimental: as §1, §2, §4, §6

[3] = system: K. pneumoniae strain 0143; experiment: PCR-based rapid ID/AST and CLSI susceptibility interpretation, K. pneumoniae strain 0143; assay type: cell-based, Klebsiella pneumoniae
Experimental: as §1, §2, §4, §6
(§7) The percentages on the Y-axis depicted as “Fold Change Abx level 1” were determined using the calculation 2^-(Abx_Level_1_Ct−Reference_Ct) or 2^-([…]Ct).

[4] = system: K. pneumoniae strain 16565; experiment: PCR-based rapid ID/AST and CLSI susceptibility interpretation, K. pneumoniae strain 16565; assay type: cell-based, Klebsiella pneumoniae
Experimental: as §1, §2, §4, §6, §7

[5] = system: P. aeruginosa strain 17816; experiment: PCR-based rapid ID/AST and CLSI susceptibility interpretation, P. aeruginosa strain 17816; assay type: cell-based, Pseudomonas aeruginosa
Experimental: as §1, §2, §4, §6

[6] = system: P. aeruginosa strain 16657; experiment: PCR-based rapid ID/AST and CLSI susceptibility interpretation, P. aeruginosa strain 16657; assay type: cell-based, Pseudomonas aeruginosa
Experimental: as §1, §2, §4, §6

| Compound | antimicrobial susceptibility of the strain to the given antimicrobial (E. faecium strain 18446) | antimicrobial susceptibility of the strain to the given antimicrobial (E. faecium strain 18483) | antimicrobial susceptibility of the strain to the given antimicrobial (S. aureus strain 16405) | antimicrobial susceptibility of the strain to the given antimicrobial (S. aureus strain 15509) | antimicrobial susceptibility of the strain to the given antimicrobial [1] | antimicrobial susceptibility of the strain to the given antimicrobial [2] | antimicrobial susceptibility of the strain to the given antimicrobial [3] | antimicrobial susceptibility of the strain to the given antimicrobial [4] | antimicrobial susceptibility of the strain to the given antimicrobial [5] | antimicrobial susceptibility of the strain to the given antimicrobial [6] |
| --- | --- | --- | --- | --- | --- | --- | --- | --- | --- | --- |
| CC1(C)S[C@@H]2[C@H](NC(=O)[C@H](N)c3ccccc3)C(=O)N2[C@H]1C(=O)O [ampicillin] | sensitive | resistant |  |  |  |  |  |  |  |  |
| CO[C@@]1(NC(=O)Cc2cccs2)C(=O)N2C(C(=O)O)=C(COC(N)=O)CS[C@@H]21 [cefoxitin] |  |  | sensitive | resistant |  |  |  |  |  |  |
| C[C@@H](O)[C@H]1C(=O)N2C(C(=O)O)=C(S[C@@H]3CN[C@H](C(=O)N(C)C)C3)[C@H](C)[C@H]12 [meropenem] |  |  |  |  | sensitive | resistant | resistant | sensitive | sensitive | resistant |
| CN[C@H](CC(C)C)C(=O)N[C@H]1C(=O)N[C@@H](CC(N)=O)C(=O)N[C@H]2C(=O)N[C@H]3C(=O)N[C@H](C(=O)N[C@H](C(=O)O)c4cc(O)cc(O)c4-c4cc3ccc4O)[C@H](O)c3ccc(c(Cl)c3)Oc3cc2cc(c3O[C@@H]2O[C@H](CO)[C@@H](O)[C@H](O)[C@H]2O[C@H]2C[C@](C)(N)[C@H](O)[C@H](C)O2)Oc2ccc(cc2Cl)[C@H]1O [vancomycin] | sensitive | resistant |  |  |  |  |  |  |  |  |
| gentamicin |  |  |  |  | sensitive | resistant | resistant | sensitive | sensitive | resistant |
